The target in one test is T1, horse spleen apoferritin (Equus caballus, UniProt P02791).
T1 sequence (P02791 2-175 limits assumed): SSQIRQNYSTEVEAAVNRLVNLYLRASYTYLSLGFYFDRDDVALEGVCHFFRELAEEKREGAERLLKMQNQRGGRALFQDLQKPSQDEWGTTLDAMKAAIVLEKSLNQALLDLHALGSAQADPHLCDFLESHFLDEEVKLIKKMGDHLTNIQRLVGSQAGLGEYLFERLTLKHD
As to the kind of experiment: 1-AMA/apoferritin fluorescence competition assay, qHTS in 1,536-well format. Type of test: binding. The settings on record: for inhibition at 77 µM: read-out: inhibition at maximal concentrations in qHTS. The protocol: The previously-reported apoferritin-1-AMA binding assay was miniaturized to 3 µL in 1,536-well plates.
Throughout the screen, reagent bottles and all liquid lines were made light-tight to minimize reagent degradation. Activity was computed as the normalized fluorescence response relative to free 1-AMA and 1-AMA/apoferritin complex values. Concentration–effect relationships were derived by using publicly-available curve-fitting algorithms developed in-house (http://ncgc.nih.gov/pub/openhts/). A four parameter Hill equation was fitted to the concentration-response data by minimizing the residual error between the modeled and observed responses.
A general note: qHTS replaces the single test concentration by a dilution series.

Another test has as its target T2, apoferritin (Equus caballus, UniProt P02791).
T2 sequence (P02791 2-175 limits assumed): T1 sequence (P02791 2-175 limits assumed)
The test is described as follows: Isothermal titration calorimetry (ITC) of compound into apoferritin. The settings on record: for ITC evidence of binding (in words): enthalpogram. On the technique in general: Isothermal titration calorimetry measures the heat released or taken up as one component is titrated into another.

The mark [1] stands for this setting: computed directly from 1-AMA inhibition data, infinite value fixed to -70%, seven concentrations 77 µM to 25 nM, read-out: qHTS IC50.

Entries after “also recorded” stand apart in the source; their conditions may differ. Structures can show the parent of a compound that is named as a salt. Where two headings read alike, the source gives them in different places.

The record followed here is PMC2746312, “A High-Throughput Approach for Identification of Novel General Anesthetics” (PLoS ONE, 2009).

The IC50 is the midpoint of a concentration-inhibition curve. In general, Kd refers to the concentration at which binding is half-saturated. A higher Kd goes with a looser complex.

Regarding `CC(N)c1cccc(Cl)c1Cl` (racemic) [D-103, (±)-2,3-Dichloro-alpha-methylbenzylamine hydrochloride], the IC50 on horse spleen apoferritin (setting [1]) worked out at 94 µM. On apoferritin, this compound gave a Kd of 506 µM.

On to `CCOC(=O)C(C)(C)Oc1ccc(Cl)cc1` [C-6643, Clofibrate], for which the half-maximal inhibitory concentration (IC50) at horse spleen apoferritin (setting [1]) turned out to be 105 µM. For the same compound, at apoferritin, the Kd is 11.5 µM.

Consider `O=c1oc(Cl)c(Cl)c2ccccc12` [D-7910, 3,4-Dichloroisocoumarin], for which, on horse spleen apoferritin (setting [1]), the IC50 worked out at 129 µM.

As to `CC(C)c1cccc(C(C)C)c1O` [D-126608, 2,6-diisopropylphenol (propofol)], the concentration for half-maximal inhibition (IC50) at horse spleen apoferritin amounted to 67 µM. Besides, the “qHTS screen outcome (in words)” value at horse spleen apoferritin (LOPAC1280 screen with filters) is reported as “successfully identified in this screen”. The equilibrium dissociation constant (Kd) on apoferritin came out at 5 µM.

`CC1(C)CCC2=C(O1)c1ccccc1C(=O)C2=O` [L-2037, β-Lapachone]: the IC50 on horse spleen apoferritin (setting [1]) came out at 33 µM.

Turning to `c1ccc([C@H]2CN3CCSC3=N2)cc1` [L-9756, (-)-Tetramisole hydrochloride], the half-inhibitory concentration (IC50) on horse spleen apoferritin (setting [1]) was determined as 194 µM. The same compound registered an equilibrium dissociation constant (Kd) on apoferritin of 233 µM.

As to `C#CCN(C)C(C)Cc1ccccc1` (stereo not drawn) [M-003, R-(-)-Deprenyl hydrochloride], the IC50 at horse spleen apoferritin worked out at 100 µM. This compound also came in with a Kd on apoferritin of 74 µM.

On to `Cc1cccc(C#Cc2ccccc2)n1` [M-5435, 6-Methyl-2-(phenylethynyl)pyridine], for which, at horse spleen apoferritin (setting [1]), the half-maximal inhibitory concentration (IC50) stood at 152 µM. The Kd at apoferritin turned out to be 313 µM.

On horse spleen apoferritin, `CN(N=O)c1ccc(O)c(O)c1` [M-9440, Methyl-3,4-dephostatin] registered a half-maximal inhibitory concentration (IC50) of 155 µM. Besides, the Kd on apoferritin is 284 µM.

Regarding `O=Nc1ccc2oc(=O)ccc2c1` [N-8403, 6-Nitroso-1,2-benopyrone], at horse spleen apoferritin (setting [1]), the half-inhibitory concentration (IC50) was determined as 107 µM. In addition, binding at apoferritin was put at a Kd of 37.9 µM.

`C=C1C(=O)O[C@H]2[C@H]1CC/C(C)=C/CC[C@@]1(C)O[C@@H]21` [P-0667, Parthenolide]: the 50% inhibitory concentration (IC50) on horse spleen apoferritin (setting [1]) came out at 68 µM. This compound registered a Kd at apoferritin of 35.9 µM.

Turning to `COc1ccc2c(c1)/C(=C/c1cnc[nH]1)C(=O)N2` [S-1693, SU 9516], at horse spleen apoferritin, the inhibition at 77 µM was around 30%. The half-maximal inhibitory concentration (IC50) on horse spleen apoferritin (setting [1]) came out at 88 µM. Further, the “ITC evidence of binding (in words)” value at apoferritin is “failed to provide convincing evidence of binding”.

Regarding `Oc1ccc(C2CNCc3sccc32)cc1O` (stereo not drawn) [S-3066, SKF-89626 hydrobromide], at horse spleen apoferritin, the inhibition at 77 µM was around 30%. Besides, the “ITC evidence of binding (in words)” value at apoferritin is reported as “does not; also recorded: failed to provide convincing evidence of binding”.

For `Cc1ccc(O)c(/N=N/c2ccccc2)n1` [S-9186, SIB 1757], on horse spleen apoferritin (setting [1]), the IC50 turned out to be 42 µM.

Regarding `CCSC(=N)Nc1ccc(C(F)(F)F)cc1` [T7188, TFPI hydrochloride], the half-maximal inhibitory concentration (IC50) on horse spleen apoferritin (setting [1]) stood at 98 µM. On apoferritin, binding was put at a Kd of 25.3 µM.

Turning to `N#C/C(=C\c1ccc(O)c(O)c1)C(N)=S` [T-7540, Tyrphostin 47], the 50% inhibitory concentration (IC50) on horse spleen apoferritin (setting [1]) was found to be 219 µM. In addition, on apoferritin, the affinity, expressed as Kd, was 189 µM.

As to `S=C([S-])OC1CC2CC1C1CCCC21.[K+]` (stereo not drawn) [T-8543, O-Tricyclo[5.2.1.0^2,6]dec-9-yl dithiocarbonate potassium salt], the IC50 on horse spleen apoferritin (setting [1]) was found to be 16 µM. Also, at apoferritin, the Kd was found to be 12.3 µM and the “ITC evidence of binding (in words)” value is given as “clear exothermic binding behavior”.

Consider `Cc1cc(C(C)(C)C)cc(C)c1CC1=NCCN1` [X-6000, Xylometazoline hydrochloride], for which the 50% inhibitory concentration (IC50) at horse spleen apoferritin stood at 167 µM. This compound also displayed a Kd on apoferritin of 177 µM.
